This assay relates to angiogenesis. As to the kind of experiment: Angiogenic activity. To be noted: truncated peptides compared with SVVYGLR; confirmed by the present inventors, no method given.

Consider SVVYGL, for which the angiogenic activity result was “retain the angiogenic activity of SVVYGLR”.

On to VVYGLR, for which the angiogenic activity entry is given as “retain the angiogenic activity of SVVYGLR”.

Values taken from patent publication US11077167B2, “Agent for promoting skeletal muscle injury repair” (Osaka University, priority 2017, dated 2021).
